Data as given in ChEMBL document CHEMBL1124790, “Angiotensin converting enzyme inhibitors. 10. Aryl sulfonamide substituted N-[1-carboxy-3-phenylpropyl]-L-alanyl-L-proline derivatives as novel antihypertensives” (J Med Chem, 1990).
Where “and” joins values, the source holds several entries; their conditions need not be identical. Identical values can stand only once. Calls of active or inactive are those of the source. The calls are words filed in the database; no cut-off is given here.

Tests used:
[1] = target: T1, Angiotensin-converting enzyme (Oryctolagus cuniculus) (UniProt P12822); experiment: In vivo inhibition of angiotensin I converting enzyme (ACE) in rabbit lung after (po) administration of a dose of 10(mg/kg); format: organism-based
T1 sequence (whole entry): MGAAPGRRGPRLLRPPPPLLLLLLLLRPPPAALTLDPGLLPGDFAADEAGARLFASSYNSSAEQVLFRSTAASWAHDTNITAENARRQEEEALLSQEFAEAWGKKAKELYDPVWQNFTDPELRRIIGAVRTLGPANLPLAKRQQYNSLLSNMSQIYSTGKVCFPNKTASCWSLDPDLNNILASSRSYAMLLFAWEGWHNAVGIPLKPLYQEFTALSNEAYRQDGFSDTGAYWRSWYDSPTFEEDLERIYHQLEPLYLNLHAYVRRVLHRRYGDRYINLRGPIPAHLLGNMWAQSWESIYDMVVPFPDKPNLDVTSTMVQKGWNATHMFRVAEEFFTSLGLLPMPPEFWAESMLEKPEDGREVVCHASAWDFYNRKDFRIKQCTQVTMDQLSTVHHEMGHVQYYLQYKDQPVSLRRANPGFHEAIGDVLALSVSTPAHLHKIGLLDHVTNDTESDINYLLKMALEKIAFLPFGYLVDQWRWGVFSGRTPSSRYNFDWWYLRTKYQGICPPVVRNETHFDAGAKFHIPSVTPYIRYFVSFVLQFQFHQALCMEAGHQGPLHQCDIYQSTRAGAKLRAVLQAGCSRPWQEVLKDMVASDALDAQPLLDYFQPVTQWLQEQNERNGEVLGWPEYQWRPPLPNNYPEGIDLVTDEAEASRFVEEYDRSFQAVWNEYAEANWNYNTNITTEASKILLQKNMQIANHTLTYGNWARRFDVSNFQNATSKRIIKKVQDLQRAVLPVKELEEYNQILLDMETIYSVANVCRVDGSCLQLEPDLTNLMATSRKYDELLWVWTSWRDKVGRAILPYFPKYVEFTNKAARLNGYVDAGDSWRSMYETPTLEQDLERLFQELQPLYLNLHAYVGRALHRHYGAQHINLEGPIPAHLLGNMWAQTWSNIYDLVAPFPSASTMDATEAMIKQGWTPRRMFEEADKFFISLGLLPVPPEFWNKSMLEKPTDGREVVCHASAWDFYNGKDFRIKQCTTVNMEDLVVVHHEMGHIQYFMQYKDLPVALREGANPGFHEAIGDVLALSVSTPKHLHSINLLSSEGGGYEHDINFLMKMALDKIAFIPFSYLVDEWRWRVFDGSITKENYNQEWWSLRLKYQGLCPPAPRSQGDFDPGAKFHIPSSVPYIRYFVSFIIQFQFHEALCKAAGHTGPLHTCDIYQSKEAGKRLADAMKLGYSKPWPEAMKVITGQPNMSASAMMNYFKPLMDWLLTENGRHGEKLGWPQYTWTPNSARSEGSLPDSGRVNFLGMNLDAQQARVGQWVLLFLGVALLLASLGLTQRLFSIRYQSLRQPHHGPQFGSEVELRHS

[2] = target: T2, Angiotensin-converting enzyme (Oryctolagus cuniculus, UniProt P12822); experiment: In vitro inhibition of angiotensin I converting enzyme (ACE) in rabbit lung; format: tissue-based
T2 sequence (P12822 whole entry): T1 sequence (whole entry)

[3] = test system: Rattus norvegicus; experiment: Percent change in K+ in fasted rats at the dose of 30 mg/kg (ip), 0-5 h; NA=Inactive; format: functional, organism-based; set-up: dose 30 mg/kg
[4] = target: T1, Angiotensin-converting enzyme (Oryctolagus cuniculus); experiment: Time to inhibit maximum angiotensin I converting enzyme in rabbit lung; format: functional, tissue-based
[5] = target: T1, Angiotensin-converting enzyme (Oryctolagus cuniculus); experiment: Time during which angiotensin I converting enzyme inhibition is greater than or equa to 30% in rabbit lung; format: functional, tissue-based
[6] = target: T1, Angiotensin-converting enzyme (Oryctolagus cuniculus); experiment: In vivo inhibition of angiotensin I converting enzyme (ACE) in rabbit lung after (iv) administration of a dose of 10(mg/kg); format: organism-based
[7] = target: T2, Angiotensin-converting enzyme; experiment: In vitro inhibition of angiotensin I converting enzyme(ACE) in rabbit lung; format: tissue-based
[8] = test system: Angiotensin-converting enzyme (Sus scrofa); experiment: Time during which angiotensin I converting enzyme inhibition is greater than or equal to 30% in Hog plasma
[9] = test system: Rattus norvegicus; experiment: Percent change in urinary volume in fasted rats at the dose of 82 mg/kg (iv), 0-5 h; format: functional, Urine
[10] = test system: Rattus norvegicus; experiment: Antihypertensive activity was determined in spontaneously hypertensive rat at a dose of 100 mg/kg(po) administration; format: functional
[11] = test system: Angiotensin-converting enzyme (Sus scrofa); experiment: Time to inhibit maximum angiotensin I converting enzyme in Hog plasma
[12] = test system: Rattus norvegicus; experiment: Antihypertensive activity was determined in spontaneously hypertensive rat at a dose of 100 mg/kg(ip) administration; format: functional
[13] = species: Rattus norvegicus; experiment: The onset hour was determined in rat; format: functional
[14] = test system: Rattus norvegicus; experiment: Percent change in K+ in fasted rats at the dose of 82 mg/kg (iv), 0-5 h; format: functional
[15] = test system: Rattus norvegicus; experiment: Time duration was determined for the actioni (determination of MAP in case of oral administration) in rat; format: functional
[16] = test system: Rattus norvegicus; experiment: Percent change in Na+ in fasted rats at the dose of 82 mg/kg (iv), 0-5 h; format: functional
[17] = test system: Rattus norvegicus; experiment: Time duration was determined for the actioni (determination of MAP in ip administration) in rat; format: functional
[18] = test system: Rattus norvegicus; experiment: Percent change in K+ in fasted rats at the dose of 100 mg/kg (po), 5-24 h; format: functional
[19] = test system: Rattus norvegicus; experiment: Percent change in Na+in fasted rats at the dose of 100 mg/kg (po), 5-24 h; format: functional
[20] = test system: Rattus norvegicus; experiment: Percent change in K+ in fasted rats at the dose of 100 mg/kg (po), 0-5 h; format: functional
[21] = target: T1, Angiotensin-converting enzyme (Oryctolagus cuniculus); experiment: Time to maximum inhibition of angiotensin I converting enzyme in rabbit lung; format: functional, tissue-based
[22] = test system: Rattus norvegicus; experiment: Percent change in urinary volume in fasted rats at the dose of 100 mg/kg (po), 5-24 h; format: functional, Urine
[23] = test system: Rattus norvegicus; experiment: Percent change in urinary volume in fasted rats at the dose of 100 mg/kg (po), 0-5 h; format: functional, Urine
[24] = target: T1, Angiotensin-converting enzyme (Oryctolagus cuniculus); experiment: In vivo inhibition of angiotensin I converting enzyme(ACE) in rabbit lung at the dose of 10(mg/kg), po; format: organism-based
[25] = target: T1, Angiotensin-converting enzyme (Oryctolagus cuniculus); experiment: In vivo inhibition of angiotensin I converting enzyme (ACE) in rabbit lung after (ip) administration of a dose of 10(mg/kg); format: organism-based
[26] = test system: Rattus norvegicus; experiment: Percent change in Na+in fasted rats at the dose of 100 mg/kg (po), 0-5 h; format: functional
[27] = test system: Rattus norvegicus; experiment: Percent change in K+ in fasted rats at the dose of 100 mg/kg (iv), 0-5 h; NA=Inactive; format: functional, organism-based; set-up: dose 100 mg/kg
[28] = test system: Rattus norvegicus; experiment: Percent change in urinary volume in fasted rats at the dose of 30 mg/kg (iv), 0-5 h; format: functional, Urine
[29] = test system: Rattus norvegicus; experiment: Percent change in K+ in fasted rats at the dose of 30 mg/kg (iv), 0-5 h; format: functional
[30] = target: T1, Angiotensin-converting enzyme (Oryctolagus cuniculus); experiment: In vivo inhibition of angiotensin I converting enzyme (ACE) in rabbit lung at the dose of 10(mg/kg), po; format: organism-based
[31] = test system: Rattus norvegicus; experiment: Percent change in Na+ in fasted rats at the dose of 30 mg/kg (iv), 0-5 h; format: functional

Row | SMILES | inhibition [1] [%] | IC50 [2] [nM] | Time to max. inhibition [4] | Duration [5] | inhibition [6] [%] | Onset [13] [h] | Duration [15] [h] | Duration [17] [h] | Change [20] [%] | Change [23] [%] | Change [26] [%] | other results
1 | C[C@H](N[C@@H](CCc1ccccc1)C(=O)O)C(=O)N1CC2(C[C@H]1C(=O)O)Nc1cc(Cl)c(S(N)(=O)=O)cc1S(=O)(=O)N2 (stereo partly drawn) | 54 | 85 | 1 h | 2.1 h | – | – | – | – | – | – | – | Change [3]: inactive
2 | C[C@H](N[C@@H](CCc1ccccc1)C(=O)O)C(=O)N1C[C@H](OCCC2Nc3cc(Cl)c(S(N)(=O)=O)cc3S(=O)(=O)N2)C[C@H]1C(=O)O (stereo partly drawn) | 38 | – | 0.3 h | 3.7 h | 100 | 0.25 | 19 | >14 | – | – | – | IC50 [7]: 22 nM; Duration [8]: 1.6 h; Change [9]: 0%; Change in MAP [10]: -19%; Time to max. inhibition [11]: 2.6 h; Change in MAP [12]: -35%; Change [14]: 80%; Change [16]: 60%
3 | C[C@H](N[C@@H](CCc1ccccc1)C(=O)O)C(=O)N1C(c2ccc(Cl)c(S(N)(=O)=O)c2)SC[C@H]1C(=O)O (stereo partly drawn) | – | 8 | 0.3 h | – | – | – | – | – | 0 | -43 | 0 | Change [18]: -45%; Change [19]: -22%; Time to max. inhibition [21]: 0.3 h; Change [22]: -42%; inhibition [24]: 44%; inhibition [25]: 96%; Change [27]: inactive
4 | C[C@H](N[C@@H](CCc1ccccc1)C(=O)O)C(=O)N1CC(N(C)CCC2Nc3cc(Cl)c(S(N)(=O)=O)cc3S(=O)(=O)N2)C[C@H]1C(=O)O.Cl.Cl (stereo partly drawn) | – | 18 | 2.7 h and 3 h | > 4 h and 3.7 h | 96 | 0.5 | >42 | >24 | 40 | 0 | 36 | Change [28]: 0%; Change [29]: 0%; Change in MAP ([10]; 100 mg/kg): -20% and -22%; inhibition [30]: 37%; Change [31]: 0%
5 | C[C@H](N[C@@H](CCc1ccccc1)C(=O)O)C(=O)N1C[C@@H](NS(=O)(=O)c2cc3c(cc2Cl)N=CNS3(=O)=O)C[C@H]1C(=O)O | – | 23 | – | – | – | – | – | – | – | – | – | –
